A word on the IC50: it is the midpoint of a concentration-inhibition curve. Lower therefore signals inhibition by little substance.

SMILES strings stand for the structures.

This assay has as its system HeLa. The experiment in a line: Cytotoxicity against human HeLa cells by MTT assay. It counts as functional, cell-based. Background: Formazan colour is commonly taken as a measure of viable cells.
On to `CCC1=C[C@H]2CN(CCc3c([nH]c4ccccc34)[C@@](C(=O)OC)(c3cc4c(cc3OC)N(C)[C@H]3[C@@](O)(CCNC(=O)c5ccco5)[C@H](OC(C)=O)[C@]5(CC)C=CCN6CC[C@]43[C@@H]65)C2)C1`, for which the IC50 was found to be 18 nM.

Compound `CCC1=C[C@H]2CN(CCc3c([nH]c4ccccc34)[C@@](C(=O)OC)(c3cc4c(cc3OC)N(C)[C@H]3[C@@](O)(CCNC(=O)C5CC5)[C@H](OC(C)=O)[C@]5(CC)C=CCN6CC[C@]43[C@@H]65)C2)C1` displayed an IC50 of 142 nM.

`CCC1=C[C@@H]2CN(C1)Cc1c([nH]c3ccccc13)[C@@](C(=O)OC)(c1cc3c(cc1OC)N(C)[C@H]1[C@@](O)(C(=O)OC)[C@H](OC(C)=O)[C@]4(CC)C=CCN5CC[C@]31[C@@H]54)C2` [VINORELBINE]: the IC50 came out at 27 nM.

For `CCC(=O)NCC[C@@]1(O)[C@H](OC(C)=O)[C@]2(CC)C=CCN3CC[C@@]4(c5cc([C@@]6(C(=O)OC)C[C@H]7C=C(CC)CN(CCc8c6[nH]c6ccccc86)C7)c(OC)cc5N(C)[C@@H]14)[C@@H]32`, the IC50 is 110 nM.

For the compound `CCC1=C[C@H]2CN(CCc3c([nH]c4ccccc34)[C@@](C(=O)OC)(c3cc4c(cc3OC)N(C)[C@H]3[C@@](O)(CCNC(=O)c5cccc(OC)c5)[C@H](OC(C)=O)[C@]5(CC)C=CCN6CC[C@]43[C@@H]65)C2)C1`, the IC50 was 169 nM.

With `CCC1=C[C@H]2CN(CCc3c([nH]c4ccccc34)[C@@](C(=O)OC)(c3cc4c(cc3OC)N(C)[C@H]3[C@@](O)(CCNC(=O)c5ccccc5F)[C@H](OC(C)=O)[C@]5(CC)C=CCN6CC[C@]43[C@@H]65)C2)C1`, 247 nM corresponded to half-maximal inhibition (IC50).

For `CCC1=C[C@H]2CN(CCc3c([nH]c4ccccc34)[C@@](C(=O)OC)(c3cc4c(cc3OC)N(C)[C@H]3[C@@](O)(CCNC(=O)CC(C)C)[C@H](OC(C)=O)[C@]5(CC)C=CCN6CC[C@]43[C@@H]65)C2)C1`, half-maximal inhibition (IC50) required 185 nM.

The compound `CCC1=C[C@H]2CN(CCc3c([nH]c4ccccc34)[C@@](C(=O)OC)(c3cc4c(cc3OC)N(C)[C@H]3[C@@](O)(CCNC(=O)c5ccccc5)[C@H](OC(C)=O)[C@]5(CC)C=CCN6CC[C@]43[C@@H]65)C2)C1` showed an IC50 of 107 nM.

As for `CCC1=C[C@H]2CN(CCc3c([nH]c4ccccc34)[C@@](C(=O)OC)(c3cc4c(cc3OC)N(C)[C@H]3[C@@](O)(CCNC(=O)C(C)C)[C@H](OC(C)=O)[C@]5(CC)C=CCN6CC[C@]43[C@@H]65)C2)C1`, inhibition was half-maximal at 26 nM (IC50).

The compound `CCC1=C[C@H]2CN(CCc3c([nH]c4ccccc34)[C@@](C(=O)OC)(c3cc4c(cc3OC)N(C)[C@H]3[C@@](O)(CCNC(=O)c5ccccc5OC)[C@H](OC(C)=O)[C@]5(CC)C=CCN6CC[C@]43[C@@H]65)C2)C1` had an IC50 of 234 nM.

`CCC1=C[C@H]2CN(CCc3c([nH]c4ccccc34)[C@@](C(=O)OC)(c3cc4c(cc3OC)N(C)[C@H]3[C@@](O)(CCNC(=O)c5ccc(C)cc5)[C@H](OC(C)=O)[C@]5(CC)C=CCN6CC[C@]43[C@@H]65)C2)C1`: it took 259 nM to reach half-maximal inhibition (IC50).

Consider `CCC1=C[C@H]2CN(CCc3c([nH]c4ccccc34)[C@@](C(=O)OC)(c3cc4c(cc3OC)N(C)[C@H]3[C@@](O)(CCNC(C)=O)[C@H](OC(C)=O)[C@]5(CC)C=CCN6CC[C@]43[C@@H]65)C2)C1`, for which the IC50 is 57 nM.

For the origin of these results see ChEMBL document CHEMBL2177090, “Ceric ammonium nitrate-promoted oxidative coupling reaction for the synthesis and evaluation of a series of anti-tumor amide anhydrovinblastine analogs” (Bioorg Med Chem Lett, 2012).
